Our source for the viscosity, mass density and Normal melting temperature values is the NIST ThermoML archive (doi:10.1021/acs.jced.6b00688).

Numbers after ± are expanded uncertainties.

For this series the following is noted: for viscosity / mass density: 101.33 kPa, Liquid; for viscosity: Falling or rolling sphere viscometry; for mass density: Vibrating tube method; for Normal melting temperature: Crystal, DTA.

Consider `CCCCCCCO` [heptan-1-ol], for which the Normal melting temperature is -34.10 ± 6 °C. Besides, for the setting “293.15 K”, the viscosity is given as 6.89 ± 0.15 mPa·s and the mass density is on record as 822.24 ± 1.6 kg/m3. Moreover, where the note is “298.15 K”, the viscosity was 5.805 ± 0.12 mPa·s and the mass density worked out at 818.74 ± 1.6 kg/m3. For the same compound, for the setting “303.15 K”, the viscosity turned out to be 4.941 ± 0.11 mPa·s and the mass density is on record as 815.22 ± 1.6 kg/m3. Further, under “308.15 K”, the viscosity is 4.233 ± 0.09 mPa·s and the mass density was determined as 811.68 ± 1.6 kg/m3. For the same compound, under “313.15 K”, the viscosity is on record as 3.648 ± 0.077 mPa·s and the mass density was determined as 808.11 ± 1.6 kg/m3. Where the note is “318.15 K”, the viscosity stood at 3.165 ± 0.067 mPa·s and the mass density is on record as 804.52 ± 1.6 kg/m3. Moreover, where the note is “323.15 K”, the viscosity was 2.762 ± 0.059 mPa·s and the mass density is 800.88 ± 1.6 kg/m3. Also, for the setting “328.15 K”, the viscosity is given as 2.423 ± 0.051 mPa·s and the mass density was found to be 797.2 ± 1.6 kg/m3. Under “333.15 K”, the viscosity was 2.137 ± 0.045 mPa·s and the mass density was found to be 793.49 ± 1.6 kg/m3.

`CC1CCCCC1` [methylcyclohexane]: the Normal melting temperature is -125.30 ± 6 °C. Also, for the setting “293.15 K”, the viscosity is listed as 0.727 ± 0.016 mPa·s and the mass density is 769.33 ± 1.5 kg/m3. Moreover, for the setting “298.15 K”, the viscosity is listed as 0.681 ± 0.015 mPa·s and the mass density came out at 765 ± 1.5 kg/m3. Moreover, under “303.15 K”, the viscosity stood at 0.64 ± 0.014 mPa·s and the mass density is 760.67 ± 1.5 kg/m3. Moreover, where the note is “308.15 K”, the viscosity was 0.604 ± 0.013 mPa·s and the mass density is 756.32 ± 1.5 kg/m3. Where the note is “313.15 K”, the viscosity was determined as 0.571 ± 0.012 mPa·s and the mass density is given as 751.95 ± 1.5 kg/m3. Also, under “318.15 K”, the viscosity was determined as 0.542 ± 0.012 mPa·s and the mass density was 747.56 ± 1.5 kg/m3. Also, where the note is “323.15 K”, the viscosity is 0.515 ± 0.011 mPa·s and the mass density amounted to 743.15 ± 1.5 kg/m3. Further, for the setting “328.15 K”, the viscosity is listed as 0.491 ± 0.011 mPa·s and the mass density is on record as 738.73 ± 1.5 kg/m3. In addition, under “333.15 K”, the viscosity is 0.469 ± 0.01 mPa·s and the mass density stood at 734.28 ± 1.5 kg/m3.

For the compound `OCC1CCCCC1` [cyclohexylmethanol], the viscosity is reported as 36.96 ± 0.79 mPa·s (293.15 K); 28.35 ± 0.61 mPa·s (298.15 K); 22.04 ± 0.47 mPa·s (303.15 K); 17.32 ± 0.37 mPa·s (308.15 K); 13.83 ± 0.3 mPa·s (313.15 K); 11.14 ± 0.24 mPa·s (318.15 K). In addition, the viscosity reads like this: (323.15 K) 9.099 ± 0.2 mPa·s; (328.15 K) 7.521 ± 0.16 mPa·s; (333.15 K) 6.283 ± 0.14 mPa·s. Also, the mass density is 929.96 ± 1.9 kg/m3 (293.15 K); 926.43 ± 1.9 kg/m3 (298.15 K); 922.87 ± 1.9 kg/m3 (303.15 K); 919.28 ± 1.8 kg/m3 (308.15 K); 915.66 ± 1.8 kg/m3 (313.15 K); 912 ± 1.8 kg/m3 (318.15 K). In addition, the mass density (323.15 K) is 908.31 ± 1.8 kg/m3, the mass density (328.15 K) is given as 904.57 ± 1.8 kg/m3 and the mass density (333.15 K) was found to be 900.78 ± 1.8 kg/m3.

Take `CCCCCCCCCCCC` [dodecane]: the Normal melting temperature is -8.20 ± 6 °C. For the setting “293.15 K”, the viscosity worked out at 1.485 ± 0.032 mPa·s and the mass density turned out to be 748.82 ± 1.5 kg/m3. Also, for the setting “298.15 K”, the viscosity came to 1.359 ± 0.029 mPa·s and the mass density turned out to be 745.2 ± 1.5 kg/m3. Under “303.15 K”, the viscosity came out at 1.25 ± 0.027 mPa·s and the mass density turned out to be 741.57 ± 1.5 kg/m3. Besides, where the note is “308.15 K”, the viscosity is 1.155 ± 0.025 mPa·s and the mass density amounted to 737.94 ± 1.5 kg/m3. For the setting “313.15 K”, the viscosity came out at 1.073 ± 0.023 mPa·s and the mass density is 734.3 ± 1.5 kg/m3. For the same compound, under “318.15 K”, the viscosity is 0.998 ± 0.022 mPa·s and the mass density came to 730.64 ± 1.5 kg/m3. Besides, where the note is “323.15 K”, the viscosity is given as 0.932 ± 0.02 mPa·s and the mass density is given as 726.98 ± 1.5 kg/m3. For the setting “328.15 K”, the viscosity is on record as 0.873 ± 0.019 mPa·s and the mass density came to 723.31 ± 1.5 kg/m3. In addition, for the setting “333.15 K”, the viscosity is reported as 0.819 ± 0.018 mPa·s and the mass density came out at 719.64 ± 1.4 kg/m3.

A word on the viscosity: it is the resistance of a fluid to flow. One may read the mass density as the mass of a sample divided by its volume.
